Measured values: patent US8895733B2 (Novartis AG, priority 2010, dated 2014)

target: T1, Nav 1.7 (Homo sapiens, UniProt Q15858); assay: Whole-cell voltage clamp electrophysiology, automated patch clamp (marker c in Table of Examples); assay type: cell-based; conditions: marker c = Automated patch clamp data; read-out: Nav 1.7 activity
T1 construct: expressed in transfected cells
Outline: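 Human NaV1.7 currents were recorded by whole-cell automated patch clamp, on IonWorks Quattro or another automated platform, typically in perforated-patch configuration. The stimulus protocol was designed to probe block mainly of the inactivated state, with a typical sweep stepping from about −65 mV holding to −10 mV, then −100 mV.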

T1 sequence (Q15858 whole entry): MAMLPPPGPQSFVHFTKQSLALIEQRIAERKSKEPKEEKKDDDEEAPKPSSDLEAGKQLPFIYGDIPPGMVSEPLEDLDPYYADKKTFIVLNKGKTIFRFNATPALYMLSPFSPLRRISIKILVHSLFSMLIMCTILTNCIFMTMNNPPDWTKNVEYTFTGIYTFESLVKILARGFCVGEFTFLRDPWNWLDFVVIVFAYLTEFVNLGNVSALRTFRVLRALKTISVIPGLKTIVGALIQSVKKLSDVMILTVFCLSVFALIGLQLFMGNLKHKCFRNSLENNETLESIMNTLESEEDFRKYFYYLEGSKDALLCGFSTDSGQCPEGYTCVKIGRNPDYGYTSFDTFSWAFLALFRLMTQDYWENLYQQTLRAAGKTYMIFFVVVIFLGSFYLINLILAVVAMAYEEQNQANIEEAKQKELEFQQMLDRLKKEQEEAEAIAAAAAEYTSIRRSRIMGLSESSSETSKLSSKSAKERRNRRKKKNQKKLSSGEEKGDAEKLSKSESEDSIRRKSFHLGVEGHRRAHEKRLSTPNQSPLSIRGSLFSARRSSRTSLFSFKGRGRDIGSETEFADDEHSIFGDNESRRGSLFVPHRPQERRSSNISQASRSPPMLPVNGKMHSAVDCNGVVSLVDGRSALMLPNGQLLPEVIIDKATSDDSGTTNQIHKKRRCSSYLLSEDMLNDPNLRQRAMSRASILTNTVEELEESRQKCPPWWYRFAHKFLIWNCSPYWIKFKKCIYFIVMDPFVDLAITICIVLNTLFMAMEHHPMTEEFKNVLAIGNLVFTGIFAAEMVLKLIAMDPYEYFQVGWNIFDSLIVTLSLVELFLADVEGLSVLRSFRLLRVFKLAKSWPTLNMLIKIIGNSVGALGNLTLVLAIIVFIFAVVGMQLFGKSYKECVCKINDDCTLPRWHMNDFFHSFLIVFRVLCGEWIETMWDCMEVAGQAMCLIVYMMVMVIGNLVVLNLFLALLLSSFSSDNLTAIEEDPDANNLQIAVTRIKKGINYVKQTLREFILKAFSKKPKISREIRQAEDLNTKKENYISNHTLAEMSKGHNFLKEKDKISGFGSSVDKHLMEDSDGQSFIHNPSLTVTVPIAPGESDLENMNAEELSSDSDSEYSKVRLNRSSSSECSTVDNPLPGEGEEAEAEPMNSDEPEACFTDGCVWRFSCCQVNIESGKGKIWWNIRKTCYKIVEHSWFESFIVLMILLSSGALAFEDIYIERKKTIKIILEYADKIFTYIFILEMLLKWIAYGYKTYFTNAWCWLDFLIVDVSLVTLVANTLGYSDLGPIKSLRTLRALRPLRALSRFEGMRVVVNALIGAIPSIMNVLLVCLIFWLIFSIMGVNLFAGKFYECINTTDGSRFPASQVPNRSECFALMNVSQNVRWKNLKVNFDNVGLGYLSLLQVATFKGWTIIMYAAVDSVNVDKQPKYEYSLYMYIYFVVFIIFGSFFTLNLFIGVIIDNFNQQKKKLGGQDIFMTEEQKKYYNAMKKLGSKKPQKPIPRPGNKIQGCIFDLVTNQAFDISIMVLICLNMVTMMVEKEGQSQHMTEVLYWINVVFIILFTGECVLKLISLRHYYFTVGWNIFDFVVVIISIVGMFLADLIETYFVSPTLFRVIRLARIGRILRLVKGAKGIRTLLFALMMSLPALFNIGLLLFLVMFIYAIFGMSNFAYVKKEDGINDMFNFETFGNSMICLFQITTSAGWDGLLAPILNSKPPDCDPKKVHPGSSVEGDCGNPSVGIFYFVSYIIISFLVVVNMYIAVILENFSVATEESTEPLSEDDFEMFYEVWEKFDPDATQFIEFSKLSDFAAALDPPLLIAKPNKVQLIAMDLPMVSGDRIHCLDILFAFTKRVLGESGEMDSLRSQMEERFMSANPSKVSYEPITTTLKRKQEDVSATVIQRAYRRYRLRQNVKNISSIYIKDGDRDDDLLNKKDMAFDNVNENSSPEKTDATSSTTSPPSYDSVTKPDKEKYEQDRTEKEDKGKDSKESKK

Row | IC50 | Structure (SMILES)
1 | 1300 nM | Nc1nc(Nc2ccccc2)nc(-c2noc(C(=O)N3CCC(OCC(F)(F)F)CC3)n2)n1 [Example 457, 2-N-phenyl-6-(5-{[4-(2,2,2-trifluoroethoxy)piperidin-1-yl]carbonyl}-1,2,4-oxadiazol-3-yl)-1,3,5-triazine-2,4-diamine]
2 | 4720 nM | CCOC1CCN(C(=O)c2nc(-c3nc(N)nc(N(C)c4ccccc4)n3)no2)CC1 [Example 458, 6-{5-[(4-ethoxypiperidin-1-yl)carbonyl]-1,2,4-oxadiazol-3-yl}-2-N-methyl-2-N-phenyl-1,3,5-triazine-2,4-diamine]
3 | 3250 nM | CN(c1ccccc1)c1nc(N)nc(-c2noc(C(=O)N3CCC(COCC4CC4)CC3)n2)n1 [Example 459, 6-[5-({4-[(cyclopropylmethoxy)methyl]piperidin-1-yl}carbonyl)-1,2,4-oxadiazol-3-yl]-2-N-methyl-2-N-phenyl-1,3,5-triazine-2,4-diamine]
4 | 3030 nM | CN(c1ccccc1)c1nc(N)nc(-c2noc(C(=O)N3CCC(COCC(F)(F)F)CC3)n2)n1 [Example 460, 2-N-methyl-2-N-phenyl-6-[5-({4-[(2,2,2-trifluoroethoxy)methyl]piperidin-1-yl]carbonyl)-1,2,4-oxadiazol-3-yl]-1,3,5-triazine-2,4-diamine]
5 | 1640 nM | Nc1nc(Nc2ccccc2)nc(-c2noc(C(=O)N3CCC(COCC(F)(F)F)CC3)n2)n1 [Example 461, 2-N-phenyl-6-[5-({4-[(2,2,2-trifluoroethoxy)methyl]piperidin-1-yl}carbonyl)-1,2,4-oxadiazol-3-yl]-1,3,5-triazine-2,4-diamine]
6 | 3610 nM | Nc1nc(Nc2ccccc2)nc(-c2noc(C(=O)N3CCC(OCC4CC4)CC3)n2)n1 [Example 462, 6-(5-{[4-(cyclopropylmethoxy)piperidin-1-yl]carbonyl}-1,2,4-oxadiazol-3-yl)-2-N-phenyl-1,3,5-triazine-2,4-diamine]
7 | 1820 nM | Nc1nc(Nc2ccccc2)nc(-c2noc(C(=O)N3CCC(COCC4CC4)CC3)n2)n1 [Example 463, 6-[5-({4-[(cyclopropylmethoxy)methyl]piperidin-1-yl}carbonyl)-1,2,4-oxadiazol-3-yl]-2-N-phenyl-1,3,5-triazine-2,4-diamine]
8 | 719 nM | CN(c1ccccc1)c1nc(N)nc(-c2noc(C(=O)N3CCC(COCCC(F)(F)F)CC3)n2)n1 [Example 464, 2-N-Methyl-2-N-phenyl-6-[5-({4-[(3,3,3-trifluoropropoxy)methyl]piperidin-1-yl}carbonyl)-1,2,4-oxadiazol-3-yl]-1,3,5-triazine-2,4-diamine]
9 | 1040 nM | CN(c1ccccc1)c1nc(N)nc(-c2noc(C(=O)N3CCC(SCC(F)(F)F)CC3)n2)n1 [Example 465, 2-N-methyl-2-N-phenyl-6-[5-({4-[(2,2,2-trifluoroethyl)sulfanyl]piperidin-1-yl}carbonyl)-1,2,4-oxadiazol-3-yl]-1,3,5-triazine-2,4-diamine]
10 | 740 nM | Nc1nc(Nc2ccccc2)nc(-c2noc(C(=O)N3CCC(SCC(F)(F)F)CC3)n2)n1 [Example 466, 2-N-phenyl-6-[5-({4-[(2,2,2-trifluoroethyl)sulfanyl]piperidin-1-yl}carbonyl)-1,2,4-oxadiazol-3-yl]-1,3,5-triazine-2,4-diamine]
11 | 9930 nM | Cc1ncc(-c2nc(-c3nc(N)nc(N(C)c4ccccc4)n3)no2)cn1 [Example 467, 2-N-methyl-6-[5-(2-methylpyrimidin-5-yl)-1,2,4-oxadiazol-3-yl]-2-N-phenyl-1,3,5-triazine-2,4-diamine]
12 | 8910 nM | CN(c1ccccc1)c1nc(N)nc(-c2noc(-c3cnccn3)n2)n1 [Example 468, 2-N-methyl-2-N-phenyl-6-[5-(pyrazin-2-yl)-1,2,4-oxadiazol-3-yl]-1,3,5-triazine-2,4-diamine]
13 | 2920 nM | CN(c1ccccc1)c1nc(N)nc(-c2noc(-c3ccnnc3)n2)n1 [Example 469, 2-N-methyl-2-N-phenyl-6-[5-(pyridazin-4-yl)-1,2,4-oxadiazol-3-yl]-1,3,5-triazine-2,4-diamine]
14 | 731 nM | CN(c1ccccc1)c1nc(N)nc(-c2noc(-c3ccc(NCC(F)(F)F)cn3)n2)n1 [Example 471, 2-N-methyl-2-N-phenyl-6-(5-{5-[(2,2,2-trifluoroethyl)amino]pyridin-2-yl}-1,2,4-oxadiazol-3-yl)-1,3,5-triazine-2,4-diamine]
15 | 310 nM | CN(c1ccccc1)c1nc(N)nc(-c2noc(-c3ccc(N4CCCCC4)nc3)n2)n1 [Example 473, 2-N-methyl-2-N-phenyl-6-{5-[6-(piperidin-1-yl)pyridin-3-yl]-1,2,4-oxadiazol-3-yl}-1,3,5-triazine-2,4-diamine]
16 | 289 nM | CN(c1ccc(F)cc1)c1nc(N)nc(-c2noc(-c3ncccc3F)n2)n1 [Example 474, 2-N-(4-fluorophenyl)-6-[5-(3-fluoropyridin-2-yl)-1,2,4-oxadiazol-3-yl]-2-N-methyl-1,3,5-triazine-2,4-diamine]
17 | 69 nM | CN(c1nc(N)nc(-c2noc(-c3ncccc3F)n2)n1)c1ccccc1F [Example 475, 2-N-(2-fluorophenyl)-6-[5-(3-fluoropyridin-2-yl)-1,2,4-oxadiazol-3-yl]-2-N-methyl-1,3,5-triazine-2,4-diamine]
18 | 366 nM | CN(c1cccc(F)c1)c1nc(N)nc(-c2noc(-c3ncccc3F)n2)n1 [Example 476, 2-N-(3-fluorophenyl)-6-[5-(3-fluoropyridin-2-yl)-1,2,4-oxadiazol-3-yl]-2-N-methyl-1,3,5-triazine-2,4-diamine]
19 | 8810 nM | CN(C)C(=O)c1ccc(-c2nc(-c3nc(N)nc(N(C)c4ccccc4)n3)no2)cn1 [Example 478, 5-{3-[4-Amino-6-(methyl-phenyl-amino)-[1,3,5]triazin-2-yl]-[1,2,4]oxadiazol-5-yl}-pyridine-2-carboxylic acid dimethylamide]
20 | 1140 nM | CN(c1ccccc1)c1nc(N)nc(-c2noc(-c3cccnn3)n2)n1 [Example 479, 2-N-methyl-2-N-phenyl-6-[5-(pyridazin-3-yl)-1,2,4-oxadiazol-3-yl]-1,3,5-triazine-2,4-diamine]
21 | 313 nM | CCOc1cccnc1-c1nc(-c2nc(N)nc(N(C)c3ccccc3)n2)no1 [Example 480, 6-[5-(3-ethoxypyridin-2-yl)-1,2,4-oxadiazol-3-yl]-2-N-methyl-2-N-phenyl-1,3,5-triazine-2,4-diamine]
22 | 1900 nM | CN(c1ccccc1)c1nc(N)nc(-c2noc(-c3ncccc3NC3CC3)n2)n1 [Example 481, 6-{5-[3-(Cyclopropylamino)pyridin-2-yl]-1,2,4-oxadiazol-3-yl}-2-N-methyl-2-N-phenyl-1,3,5-triazine-2,4-diamine]
23 | 647 nM | CN(c1ccccc1)c1nc(N)nc(-c2noc(-c3ncccc3F)n2)n1 [Example 482, 6-[5-(3-Fluoropyridin-2-yl)-[1,2,4]oxadiazol-3-yl]-N-methyl-N-phenyl-[1,3,5]triazine-2,4-diamine]
24 | 2400 nM | COCCOc1cccnc1-c1nc(-c2nc(N)nc(N(C)c3ccccc3)n2)no1 [Example 483, 6-{5-[3-(2-methoxyethoxy)pyridin-2-yl]-1,2,4-oxadiazol-3-yl}-2-N-methyl-2-N-phenyl-1,3,5-triazine-2,4-diamine]
25 | 695 nM | CC(C)Oc1cccnc1-c1nc(-c2nc(N)nc(N(C)c3ccccc3)n2)no1 [Example 484, 2-N-methyl-2-N-phenyl-6-{5-[3-(propan-2-yloxy)pyridin-2-yl]-1,2,4-oxadiazol-3-yl}-1,3,5-triazine-2,4-diamine]
